9 compounds from PMC12163635, “Synthetic Retinoids for the Modulation of Genomic and Nongenomic Processes in Neurodegenerative Diseases” (ACS Omega, 2025) can be followed below.

Experiment [1] concerns the target T1, RARγ (Homo sapiens, UniProt P13631).
T1 construct: His6-3C-SUMO (cleaved yes); made in house; host or cells: E. coli BL21(DE3), pOPINS3C vector
T1 sequence (P13631 185-419 limits assumed): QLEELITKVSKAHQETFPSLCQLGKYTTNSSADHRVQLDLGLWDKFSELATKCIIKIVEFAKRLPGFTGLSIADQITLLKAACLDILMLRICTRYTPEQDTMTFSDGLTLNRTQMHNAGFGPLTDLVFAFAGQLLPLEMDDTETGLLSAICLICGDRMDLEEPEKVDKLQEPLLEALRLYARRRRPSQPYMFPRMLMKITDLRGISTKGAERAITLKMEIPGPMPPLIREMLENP
Briefly: Fluorescence competition binding assay (displacement of DC271). The note with it: for Kd / Binding KD (± SD) RARγ: 100 nM RAR and DC271 on plate; for Kd: read-out: Binding KD (± SD) RARγ; for ΔGEXP RARγ: experimental binding free energy from K D, ΔGexp=−RT ln K, 298.1 K. Here is the method: Fluorescence competition assays were employed to determine the relative binding affinities of each synthetic retinoid toward the LBD of the RARs. The assay is based on the potential for competitive displacement of the inherently fluorescent retinoid DC271 from the LBP by a test nonfluorescent synthetic retinoid. Changes in the fluorescence were measured following the addition of a serial dilution of the test compound and the results were plotted to generate a binding curve. […] Assays were performed for both RARα and RARγ. […] Nonlinear least-squares regression analyses were performed to calculate binding affinities and reported as binding K D, the equilibrium dissociation constant between the RAR isoform and the test synthetic retinoid.
RARα/γ proteins were expressed in BL21(DE3) cells (NEB) transformed into pET50b (Novagen) and pOPINS3C vectors, respectively, carrying the gene construct and containing a His6-3C-NusA tag or His6-3C-SUMO tag used for solubility. Transformations were carried out under standard conditions using Quick Transformation Protocol (New England Biolabs). Successful transformants were grown overnight in 2xYT media (Melford) and frozen for storage at −80 °C in 50% glycerol. Expression cultures were inoculated from glycerol stocks into 25 mL of 2xYT media (Melford) with 50 μg/mL kanamycin or 100 μg/mL ampicillin (Sigma-Aldrich) and grown overnight with shaking (37 °C, 150 rpm). The overnight cultures were transferred into 1 L expression flasks (2xYT/ampicillin 100 μg/mL or 2xYT/kanamycin 50 μg/mL) and grown with shaking at 37 °C, 150 rpm. Induction was carried out at an OD600 of 0.6–0.8, with 1 mL of 1 M IPTG (1 mM in culture), before shaking overnight (20 h) at 18 °C. The resulting cultures were spun down into pellets using an Avanti Hi-Speed centrifuge (JLA 8.1000, 4000 rpm, 30 min, 4 °C), before the supernatant was removed and the bacterial pellet were frozen at −80 °C.
RARα/γ (pET50b or pOPINS3C, BL21(DE3) (NEB)) were resuspended from pellet with 20 mL Wash Buffer (20 mM Tris-HCl, 300 mM NaCl and 20 mM imidazole, pH 8) and the resulting suspension was sonicated on ice (40% power, 2 min, repeated twice with 1 min rest in-between) before centrifuging (Avanti Hi-Speed JA25.50, 20,000 rpm, 1 h, 4 °C). Supernatants were clarified using 0.45 μm syringe filters (Thermo Fisher Scientific). Affinity chromatography and size-exclusion (SEC) chromatography were carried out on AKTA Pure25 (Cytiva). Supernatants were loaded onto the HisTrap HP column (5 mL, Cytiva) and washed using 25 mL of wash Buffer. The column was washed with Wash Buffer until UV trace returned to baseline, before RARα/γ was eluted using a gradient of Elution Buffer (20 mM Tris-HCl, 300 mM NaCl, 500 mM imidazole pH 8). The resulting protein-containing fractions were analyzed by SDS-PAGE (200 V, 30 min) using SurePAGE Bis-Tris 12% precast gels (Genscript). Protein concentrations were estimated using absorbance at 280 nm on a DS-11 spectrophotometer (Denovix) with calculated molecular weights and extinction coefficients (Expasy). RAR proteins were cleaved overnight from 3C-NusA tag or 3C-SUMO-His tag using 1 Unit/100 μg protein of HRV3C protease (Thermo Fisher Scientific) at 4 °C. Solution after digestion was loaded onto a HiLoad 16/600 Superdex 75 prep-grade column (Cytiva) and cleaved RARα/γ was separated from the tag based on molecular weight and eluted from the column using SEC Buffer (20 mM Tris-HCl, 300 mM NaCl and 0.5 mM TCEP, pH 8) into 2 mL fractions. The resulting protein fractions were analyzed by SDS PAGE (200 V, 30 min) using SurePAGE Bis-Tris 12% precast gels (Genscript), before being concentrated to 5 mg/mL using centrifugal concentrators (Sartorius) and frozen at −80 °C in small aliquots for use in binding assays.

The test system of experiment [2] is SH-SY5Y cells. The experiment can be described thus: Neurite outgrowth. The note with it: for induction of neurite outgrowth compared with ATRA: 10 nM; for fold induction at 0.01 µM: Homo sapiens, SH-SY5Y, 120 h, read-out: fold increase in neurite outgrowth. In kind it is cell-based, human. As to the method:
Following the characterization of retinoids for their genomic and nongenomic activities, the ability of retinoids to differentiate and induce neurite outgrowth in the neuroblastoma cell line, SH-SY5Y cells, was examined (Figure ). Neurite outgrowth can be induced in this cell line by ATRA at 10 μM.
SH-SY5Y cell line as used in ERK phosphorylation and neurite outgrowth assays described below. The cells were grown in DMEM containing 10% FCS at 37 °C with 5% CO2. The medium was changed three times a week and the cells were passaged at 70% confluence using 0.05% trypsin-EDTA.
SH-SY5Y cells were plated at 10,000 cells/well in 12-well plates containing 16 mm acid-treated/poly L-lysine-coated glass coverslips. After 24 h, retinoids were added to the medium and tested at two different concentrations, 10 μM and 10 nM, with a final DMSO concentration of 0.01 or 0.0001%, respectively. The plates were incubated for 5 days at 5% CO2/37 °C. All retinoid concentrations were tested in triplicate. Cells were fixed using 4% paraformaldehyde and stained for β-III tubulin (1:1000; Sigma). For each neurite outgrowth experiment, 3 coverslips (in 3 wells) were used. ImageJ software with the NeuronJ plugin was used to quantify neurite outgrowth on stained cells in each of the 10 randomly selected images of each coverslip taken using a Nikon Eclipse E400 fluorescence microscope. The average neurite length was calculated for each image by dividing total neurite length by the total number of neurites per image.
All data are presented as mean ± SEM of three independent experiments with biological triplicates. Statistical analyses were performed in Microsoft Office Excel 2019 or GraphPad Prism 7.0c version (Prism, GraphPad Software, San Diego, CA). Neurite outgrowth data were analyzed by one-way ANOVA with Newman-Keuls multiple comparison test as appropriate; P value <0.05 was considered statistically significant. *P < 0.05, **P < 0.01. Data for X-Gal and ERK1/2 phosphorylation were analyzed using sigmoidal dose–response analysis of log (agonist) versus response curve (stimulation).

Setting [3] is: 10 nM compound, 5 days, in comparison to nontreated cells.

Entries after “also recorded” stand apart in the source; their conditions may differ. Read-outs that look alike come from different tables or passages of the source.

What is called Kd is the constant that tells how readily two partners part at equilibrium. On to `Cc1cc2c(cc1C#Cc1cc(F)c(C(=O)O)c(F)c1)C(C)(C)CCC2(C)C` [Compound 19, 2,6-Difluoro-4-[2-(3,5,5,8,8-pentamethyl-5,6,7,8-tetrahydronaphthalen-2-yl)ethynyl]benzoic Acid], for which, in experiment [1], the Kd is 33.7 nM and the “ΔGEXP RARγ” value is -10.2 kcal/mol. In addition, in experiment [2] (5 days), the “induction of neurite outgrowth compared with ATRA” value (shortened to “induction … compared with ATRA”) is “significantly induced neurite outgrowth compared to ATRA”. For the same compound, the fold induction at 0.01 µM in experiment [2] (setting [3]) amounted to 1.6.
For `COc1cc2c(cc1C#Cc1ncc(C(=O)O)cn1)C(C)(C)CCC2(C)C` [Compound 29, 2-[2-(3-Methoxy-5,5,8,8-tetramethyl-5,6,7,8-tetrahydronaphthalen-2-yl)ethynyl]pyrimidine-5-carboxylic Acid], in experiment [1], the “Binding KD (± SD) RARγ” value is “noncompetitive binding” and the “ΔGEXP RARγ” value is “Non-competitive Binding”. Besides, the “induction … compared with ATRA” value in experiment [2] (5 days) is reported as “induced neurite outgrowth but not significantly compared to ATRA”.
Turning to `Cc1cc2c(cc1C#Cc1ccc(C(=O)O)c(F)c1)C(C)(C)CCC2(C)C` [Compound 17, 2-Fluoro-4-[2-(3,5,5,8,8-pentamethyl-5,6,7,8-tetrahydronaphthalen-2-yl)ethynyl]benzoic Acid], in experiment [1], the Kd turned out to be 20.6 nM and the “ΔGEXP RARγ” value was -10.5 kcal/mol. Further, in experiment [2] (5 days), the “induction … compared with ATRA” value is “induced neurite outgrowth but not significantly compared to ATRA”.
The matching figures for `CC1(C)CCC(C)(C)c2nc(C#Cc3ccc(C(=O)O)cc3F)cnc21` [Compound 31, 3-Fluoro-4-[2-(5,5,8,8-tetramethyl-5,6,7,8-tetrahydroquinoxalin-2-yl)ethynyl]benzoic Acid]: 142 nM, -9.38 kcal/mol and “induced neurite outgrowth but not significantly compared to ATRA”.
Take `CC1(C)CCC(C)(C)c2cc(C#Cc3ccc(C(=O)O)cc3Cl)ccc21` [Compound 16, 3-Chloro-4-[2-(5,5,8,8-tetramethyl-5,6,7,8-tetrahydronaphthalen-2-yl)ethynyl]benzoic Acid]: in experiment [1], the Kd is 24.2 nM and the “ΔGEXP RARγ” value is -10.4 kcal/mol. In addition, the fold induction at 0.01 µM in experiment [2] (setting [3]) was determined as 1.6.
With `CC1(C)CCC(C)(C)c2cc(C#Cc3ccc(C(=O)O)cn3)ccc21` [Compound 23, 6-[2-(5,5,8,8-Tetramethyl-5,6,7,8-tetrahydronaphthalen-2-yl)ethynyl]pyridine-3-carboxylic Acid], in experiment [1], the Kd stood at 24.3 nM and the “ΔGEXP RARγ” value is -10.4 kcal/mol. For the same compound, the “induction … compared with ATRA” value in experiment [2] (5 days) is “significantly induced neurite outgrowth compared to ATRA”. The fold induction at 0.01 µM in experiment [2] (setting [3]) was 1.9.
Turning to `CC1(C)CCC(C)(C)c2nc(C#Cc3ccc(C(=O)O)cc3)cnc21` [Compound 30, 4-[2-(5,5,8,8-Tetramethyl-5,6,7,8-tetrahydroquinoxalin-2-yl)ethynyl]benzoic Acid], in experiment [1], the Kd came out at 217 nM and the “ΔGEXP RARγ” value is -9.09 kcal/mol. Also, the “induction … compared with ATRA” value in experiment [2] (5 days) is “significantly induced neurite outgrowth compared to ATRA; also recorded: even higher activity compared to EC23 and GZ25”. In addition, the fold induction at 0.01 µM in experiment [2] (setting [3]) amounted to 2.3.
`Cc1sc(-c2ccc(C(=O)O)cc2)nc1-c1ccc2c(c1)C(C)(C)CCC2(C)C` [GZ25, reference compound]: in experiment [1], the Kd is 335 nM and the “ΔGEXP RARγ” value is -8.84 kcal/mol. Moreover, the “induction … compared with ATRA” value in experiment [2] (5 days) is given as “induced significant neurite outgrowth compared to ATRA”. Besides, the fold induction at 0.01 µM in experiment [2] is 1.8.
For `Cc1sc(-c2ccc(C(=O)O)cn2)nc1-c1cnc2c(n1)C(C)(C)CCC2(C)C` [Compound 41, 6-[5-Methyl-4-(5,5,8,8-tetramethyl-5,6,7,8-tetrahydroquinoxalin-2-yl)-1,3-thiazol-2-yl]pyridine-3-carboxylic Acid], in experiment [1], the “Binding KD (± SD) RARγ” value is listed as “noncompetitive binding” and the “ΔGEXP RARγ” value is given as “Non-competitive Binding”. For the same compound, in experiment [2] (setting [3]), the fold induction at 0.01 µM is 1.7.
